The subject of the assay is VEGFA (786-O cells). The assay is described as follows: VEGFA ELISA Assay (IC50). Particulars: 24 hours incubation, VEGFA in culture supernatant by ELISA. Type of assay: cell-based. Here is the method: 786-O cells in exponential growth phase were seeded in 96-well plate, the cell concentration was 65,000 cells per milliliter of culture medium, 180 ul per well. Compounds were serial diluted to the indicated concentration, and 20 ul compound solutions of different concentrations were added to the corresponding cell wells. The final compound concentrations were as follows (nM): 1.5, 4.6, 13.7, 41.2, 123.5, 370.4, 1111.1, 3333.3, 10000. After 24 hours of incubation, the cell culture supernatant was taken, and the VEGFA concentration was determined using an ELISA kit (purchased from abcam). Finally, the reaction was terminated, and the light absorbance value of each well was measured using a microplate reader at a wavelength of […], and IC50 was calculated by GraphPad Prism. Cell Titer-Glo reagent was used to measure cell viability.
A general note: In an ELISA, binding on a coated surface is turned into a signal by an enzyme label.

[1] abbreviates: Homo sapiens, 786-0, 24 h, class symbols.
The mark [2] stands for this setting: Homo sapiens, 786-0, 24 h, numeric values.

The record followed here is patent US20230219890A1, “BICYCLIC COMPOUNDS AND USE THEREOF” (Betta Pharmaceuticals Co.,Ltd, priority 2020, published 2023).

Each structure is given as a SMILES string.

In general, IC50 refers to the midpoint of a concentration-inhibition curve. A low value points to higher potency. In turn, `N#Cc1cc(-n2cc(C(F)(F)F)c3c2CCC(F)(F)[C@@H]3F)ccc1F` (single isomer, unassigned) [Example 197] came in with a half-inhibitory concentration (IC50) under setting [1] of no more than 500 nM.
Under setting [1], `N#Cc1cc(-n2cc(I)c3c2CCC(F)(F)C3O)ccc1F` (centres unmarked) [Example 5, 5-(5,5-difluoro-hydroxy-3-iodo-4,5,6,7-tetrahydro-1H-indol-1-yl)-2-fluorobenzonitrile] registered a 50% inhibitory concentration (IC50) of 500 to 1500 nM.
Take `O=C1c2c(C(F)(F)F)cn(-c3cc(F)cc(Cl)c3)c2CCC1(F)F` [Example 6, 1-(3-chloro-5-fluorophenyl)-5,5-difluoro-3-(trifluoromethyl)-1,5,6,7-tetrahydro-4H-indol-4-one]: under setting [1], the concentration for half-maximal inhibition (IC50) lay within 500 to 1500 nM.
In turn, `N#Cc1ccc(-n2cc(C(F)(F)F)c3c2CCC(F)(F)C3O)cc1` (centres unmarked) [Example 13, 4-(5,5-difluoro-4-hydroxy-3 (trifluoromethyl)-4,5,6,7-tetrahydro-1H-indol-1-yl)benzonitrile] gave an IC50 under setting [1] of no more than 500 nM.
Under setting [2], `OC1c2c(C(F)(F)F)cn(-c3cc(F)cc(Br)c3)c2CCC1(F)F` (centres unmarked) [Example 22] had a concentration for half-maximal inhibition (IC50) of 55.4 nM.
Molecule `OC1c2c(C(F)(F)F)cn(-c3cc(F)cc(C(F)(F)F)c3)c2CCC1(F)F` (centres unmarked) [Example 24] displayed a half-inhibitory concentration (IC50) under setting [1] of no more than 500 nM.
Regarding `OC1c2c(C(F)(F)F)cn(Cc3cc(F)cc(Cl)c3)c2CCC1(F)F` (centres unmarked) [Example 29], under “class symbols”, the 50% inhibitory concentration (IC50) was in the range of 1500 to 10000 nM.
Consider `N#Cc1cc(F)cc(-n2cc(C(F)(F)F)c3c2CCCC3O)c1` (centres unmarked) [Example 41, 3-fluoro-5-(4-hydroxy-3-(trifluoromethyl)-4,5,6,7-tetrahydo-1H-indol-1-yl)benzonitrile], for which the IC50 under setting [1] lay within 500 to 1500 nM.
Under setting [1], `Cn1cccc1-c1cn(-c2cc(F)cc(Cl)c2)c2c1C(O)C(F)(F)CC2` (centres unmarked) [Example 51, 1-(3-chloro-5-fluorophenyl)-5,5-difluoro-3-(1-methyl-1H-pyrrol-2-yl)-4,5,6,7-tetrahydro-1H-indol-4-ol] registered a concentration for half-maximal inhibition (IC50) of 500 to 1500 nM.
Same read-out and setting: the figure for `OC1c2c(-c3ccco3)cn(-c3cc(F)cc(Cl)c3)c2CCC1(F)F` (centres unmarked) [Example 53, 1-(3-chloro-5-fluorophenyl)-5,5-difluoro-3-(furan-2-yl)-4,5,6,7-tetrahydro-1H-indol-4-ol] is no more than 500 nM; for `N#Cc1cc(-n2cc(-c3cncs3)c3c2CCC(F)(F)C3O)ccc1F` (centres unmarked) [Example 54, 5-(5,5-difluoro-4-hydroxy-3-(thiazol-5-yl)-4,5,6,7-tetrahydro-1H-indol-1-yl)-2-fluorobenzonitrile] it is 500 to 1500 nM; for `OC1c2c(C(F)(F)F)cc(-c3cc(F)cc(Cl)c3)n2CCC1F` (centres unmarked) [Example 68, 3-(3-chloro-5-fluorophenyl)-7-fluoro-1-(trifluoromethyl)-5,6,7,8-tetrahydroindolizin-8-ol] it is no more than 500 nM.
In the case of `OC1c2c(C(F)(F)F)cc(-c3cc(F)cc(Cl)c3)n2CCC1(F)F` (centres unmarked) [Example 71, 3-(3-chloro-5-fluoropheny1)-7,7-difluoro-1-(trifluoromethyl)-5,6,7,8-tetrahydroindolizin-8-ol], under setting [2], the IC50 turned out to be 13.8 nM.
Molecule `OC1c2c(C(F)(F)F)cc(-c3cc(F)cc(F)c3)n2CCC1(F)F` (centres unmarked) [Example 76, 3-(3,5-difluorophenyl)-7,7-difluoro-1-(trifluoromethyl)-5,6,7,8-tetrahydroindolizin-8-ol] showed an IC50 under setting [1] of no more than 500 nM.
Turning to `N#Cc1cc(F)cc(-c2cc(C(F)(F)F)c3n2CCC(F)(F)C3O)c1` (centres unmarked) [Example 77, 3-(7,7-difluoro-8-hydroxy-1-(trifluoromethyl)-5,6,7,8-tetrahydroindolizin-3-yl)-5-fluorobenzonitrile], the IC50 under setting [2] worked out at 16.2 nM.
As to `OC1c2c(C(F)(F)F)nn(-c3cc(F)cc(F)c3)c2CCC1(F)F` (centres unmarked) [Example 88, 1-(3,5-difluorophenyl)-5,5-difluoro-3-(trifluoromethyl)-4,5,6,7-tetrahydro-1H-indazol-4-ol], the IC50 under setting [1] is greater than 1500 nM.
`OC1c2c(C(F)(F)F)nn(-c3cc(F)cc(Cl)c3)c2CCC1(F)F` (centres unmarked) [Example 90, 1-(3-chloro-5-fluorophenyl)-5,5-difluoro-3-(trifluoromethyl)-4,5,6,7-tetrahydro-1H-indazol-4-ol] came in with a 50% inhibitory concentration (IC50) under setting [1] greater than 1500 nM.
As to `N#Cc1cc(F)cc(-n2nc(C(F)(F)F)c3c2CCC(F)(F)C3O)c1` (centres unmarked) [Example 92], the IC50 under setting [1] was greater than 1500 nM.
Turning to `CS(=O)(=O)c1nn(Cc2ccc(F)cc2)c2c1C(=O)CCC2` [Example 93, 1-(4-fluorobenzyl)-3-(methylsulfonyl)-1,5,6,7-tetrahydro-4H-indazol-4-one], the IC50 under setting [1] is greater than 1500 nM.
Molecule `N#Cc1cn(-c2cc(F)cc(Cl)c2)c2c1C(O)C(F)(F)CC2` (centres unmarked) [Example 96, 1-(3-chloro-5-fluorophenyl)-5,5-difluoro-4-hydroxyl-4,5,6,7-tetrahydro-1H-indol-3-carbonitrile] came in with an IC50 under setting [1] of no more than 500 nM.
Take `OC1c2c(C(F)(F)F)cn(-c3cc(F)cc(Cl)c3)c2CCC1(F)F` (centres unmarked) [Example 97, 1-(3-chloro-5-fluorophenyl)-5,5-difluoro-3-(trifluoromethyl)-4,5,6,7-tetrahydro-1H-indol-4-ol]: under setting [1], the half-inhibitory concentration (IC50) is no more than 500 nM.
The same measure, in the same setting: the figure for `CC1(O)c2c(C(F)(F)F)cn(-c3ccc(F)c(C#N)c3)c2CCC1(F)F` (centres unmarked) [Example 100, 5-(5,5-difluoro-4-hydroxyl-4-methyl-3-(trifluoromethyl)-4,5,6,7-tetrahydro-1H-indol-1-yl)-2-fluorobenzonitrile] is no more than 500 nM.
`O[C@H]1c2c(C(F)(F)F)c(Cl)n(-c3ccc(F)c(Cl)c3)c2CCC1(F)F` [Example 107, (S)-2-chloro-1-(3-chloro-54-fluorophenyl)-5,5-difluoro-3-(trifluoromethyl)-4,5,6,7-tetrahydro-1H-indol-4-ol]: the IC50 (class symbols) was no more than 500 nM.
`OC1CCCc2c1c(C(F)(F)F)cn2-c1ccc(F)c(C(F)F)c1` (centres unmarked) [Example 108, 1-(3-(difluoromethyl)-4-fluorophenyl)-3-(trifluoromethyl)-4,5,6,7-tetrahydro-1H-indol-4-ol] showed an IC50 under setting [1] of no more than 500 nM.
`CS(=O)(=O)c1cn(-c2cc(F)cc(Cl)c2)c2c1C(O)C(F)(F)CC2` (centres unmarked) [Example 109, 1-(3-chloro-5-fluorophenyl)-5,5-difluoro-3-(methylsulfonyl)-4,5,6,7-tetrahydro-1H-indol-4-ol] came in with a concentration for half-maximal inhibition (IC50) under setting [1] of no more than 500 nM.
Take `N#Cc1ccc(-n2cc(C(F)(F)F)c3c2CCC(F)(F)C3O)cc1F` (centres unmarked) [Example 122, 4-(5,5-difluoro-4-hydroxy-3-(trifluoromethyl)-4,5,6,7-tetrahydro-1H-indol-1-yl)-2-fluorobenzonitrile]: under setting [2], the IC50 stood at 42.6 nM.
The molecule `OC1c2c(C(F)(F)F)cn(-c3ccc(Cl)cc3)c2CC(F)C1F` (stereo not drawn) [Example 130, l-(4-chlorophenyl)-5,6-difluoro-3-(trifluoromethyl)-4,5,6,7-tetrahydro-1H-indol-4-ol] had a 50% inhibitory concentration (IC50) under setting [1] of no more than 500 nM.
Same read-out and setting: the figure for `OC1c2c(C(F)(F)F)cn(-c3cncc(F)c3)c2CC(F)C1F` (centres unmarked) [Example 132, 5,6-difluoro-1-(5-fluoropyridin-3-yl)-3-(trifluoromethyl)-4,5,6,7-tetranydro-1H-indol-4-ol] is no more than 500 nM; for `OC1c2c(C(F)(F)F)cn(-c3cncc(F)c3)c2CCC1(F)F` (centres unmarked) [Example 133] it is 500 to 1500 nM; for `CS(=O)(=O)c1cn(-c2ccc(F)c(C#N)c2)c2c1[C@H](O)C(F)(F)CC2` [Example 134, (S)-5-(5,5-difluoro-4-hydroxy-3-(methylsulfonyl)-4,5,6,7-tetrahydro-1H-indol-1-yl)-2-fluorobenzonitrile] it is no more than 500 nM.
Molecule `N#Cc1cc(-n2cc(C(F)(F)F)c3c2CCC(F)(F)C3O)ccc1Cl` (centres unmarked) [Example 137] displayed an IC50 under setting [2] of 42.1 nM.
Under setting [1], `N#Cc1cc(F)cc(-n2cc(C(F)(F)F)c3c2CCC(F)C3O)c1` (centres unmarked) [Example 139, 3-fluoro-5-(5-fluoro-4-hydroxy-3-(trifluoromethyl)-4,5,6,7-tetrahydro-1H-indol-1-yl)benzonitrile] had an IC50 of no more than 500 nM.
In turn, `OC1c2c(C(F)(F)F)cn(-c3cc(F)cc(Cl)c3)c2C(F)CC1F` (centres unmarked) [Example 141] displayed an IC50 under setting [1] of no more than 500 nM.
Regarding `OC1c2c(C(F)(F)F)cn(-c3cc(F)cc(Cl)c3)c2CCC1F` (centres unmarked) [Example 142, 1-(3-chloro-5-fluorophenyl)-5-fluoro-3-(trifluoromethyl)-4,5,6,7-tetrahydro-1H-indol-4-ol], under setting [1], the half-maximal inhibitory concentration (IC50) was no more than 500 nM.
Turning to `OC1c2c(-c3ccccc3)cn(-c3cc(F)cc(Cl)c3)c2CCC1(F)F` (centres unmarked) [Example 145], the IC50 under setting [1] is 1500 to 10000 nM.
On the same count and under the same terms, the figure for `N#Cc1cc(Cl)cc(-n2cc(C(F)(F)F)c3c2CCC(F)(F)C3O)c1` (centres unmarked) [Example 154, 3-chloro-5-(5,5-difluoro-4-hydroxy-3-(trifluoromethyl)-4,5,6,7-tetrahydro-1H-indol-1-yl)benzonitrile] is no more than 500 nM.
Regarding `OC1c2c(C(F)(F)F)cn(-c3ccc(F)cc3)c2CCC1(F)F` (centres unmarked) [Example 160, 5,5-difluoro-1-(4-fluorophenyl)-3-(trifluoromethyl)-4,5,6,7-tetrahydro-1H-indol-4-ol], the midpoint of inhibition under setting [2], the IC50, lay at 46.1 nM.
Turning to `OC1c2c(C(F)(F)F)cn(-c3ccc(F)c(F)c3)c2CCC1(F)F` (centres unmarked) [Example 164], the concentration for half-maximal inhibition (IC50) under setting [1] is no more than 500 nM.
Consider `OC1c2c(C(F)(F)F)cn(-c3ccc(F)nc3)c2CCC1(F)F` (centres unmarked) [Example 170], for which the IC50 under setting [1] fell in the range of 500 to 1500 nM.
`O[C@@H]1c2c(C(F)(F)F)cn(-c3ccc(F)c(C(F)F)c3)c2CCC1(F)F` [Example 174, (R)-1-(3-(difluoromethyl)-4-fluorophenyl)-5,5-difluoro-3-(trifluoromethyl)-4,5,6,7-tetrahydro-1H-indol-4-ol]: under setting [1], the 50% inhibitory concentration (IC50) was in the range of 500 to 1500 nM.
`N#CC1c2c(C(F)(F)F)cn(-c3ccc(F)cc3)c2CCC1(F)F` (centres unmarked) [Example 178, 5,5-difluoro-1-(4-fluorophenyl)-3-(trifluoromethyl)-4,5,6,7-tetrahydro-1H-indole-4-carbonitrile] displayed a concentration for half-maximal inhibition (IC50) under setting [1] of no more than 500 nM.
